Experimental data as given in patent US8791132B2, “Compounds and methods for treatment of hypertension” (Medivation Technologies, Inc., priority 2011, dated 2014).
Like-named read-outs stand apart in the source and are kept apart here.

Assays:
[1] = biological target: T1, human recombinant adrenergic α2B receptor (Homo sapiens, UniProt P18089); assay: Radioligand binding, adrenergic α2B ([3H]Rauwolscine); details: for Percentage inhibition of ligand binding, Adrenergic α2B (0.03 μM) / Percentage inhibition of ligand binding, Adrenergic α2B: compound at 0.03 μM, 0.03 µM; for Percentage inhibition of ligand binding, Adrenergic α2B: repeat assays, each datapoint shown
T1 construct: expressed in transfected cells; host or cells: CHO-K1
T1 sequence (P18089 1-450): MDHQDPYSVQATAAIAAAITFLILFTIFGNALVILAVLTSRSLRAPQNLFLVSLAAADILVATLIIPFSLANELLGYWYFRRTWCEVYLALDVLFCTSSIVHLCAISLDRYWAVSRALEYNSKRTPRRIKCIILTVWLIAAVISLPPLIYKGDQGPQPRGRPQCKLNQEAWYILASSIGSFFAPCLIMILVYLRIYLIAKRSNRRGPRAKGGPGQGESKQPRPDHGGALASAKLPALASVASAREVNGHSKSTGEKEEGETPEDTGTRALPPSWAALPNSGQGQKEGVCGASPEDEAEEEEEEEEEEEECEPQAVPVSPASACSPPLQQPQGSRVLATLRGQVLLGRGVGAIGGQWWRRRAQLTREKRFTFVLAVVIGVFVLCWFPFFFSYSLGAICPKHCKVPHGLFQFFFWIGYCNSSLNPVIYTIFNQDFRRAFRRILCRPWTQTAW
Method in brief: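 Values are percent inhibition of specific radioligand binding. The receptor, expressed in CHO-K1 cells, was exposed to 2.5 nM [3H]Rauwolscine at 25° C for 60 min, with 10 μM Prazosin marking non-specific binding.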

[2] = biological target: T2, rat adrenergic α1B receptor (Rattus norvegicus, UniProt P15823); assay: Radioligand binding, adrenergic α1B ([3H]Prazosin); details: for Percentage inhibition of ligand binding, Adrenergic α1B (0.1 μM) / Percentage inhibition of ligand binding, Adrenergic α1B: compound at 0.1 μM, 0.1 µM; for Percentage inhibition of ligand binding, Adrenergic α1B: repeat assays, each datapoint shown
T2 construct: rat adrenergic α1B receptor obtained from Wistar Rat liver; from tissue; host or cells: Wistar rat liver
T2 sequence (P15823 1-515): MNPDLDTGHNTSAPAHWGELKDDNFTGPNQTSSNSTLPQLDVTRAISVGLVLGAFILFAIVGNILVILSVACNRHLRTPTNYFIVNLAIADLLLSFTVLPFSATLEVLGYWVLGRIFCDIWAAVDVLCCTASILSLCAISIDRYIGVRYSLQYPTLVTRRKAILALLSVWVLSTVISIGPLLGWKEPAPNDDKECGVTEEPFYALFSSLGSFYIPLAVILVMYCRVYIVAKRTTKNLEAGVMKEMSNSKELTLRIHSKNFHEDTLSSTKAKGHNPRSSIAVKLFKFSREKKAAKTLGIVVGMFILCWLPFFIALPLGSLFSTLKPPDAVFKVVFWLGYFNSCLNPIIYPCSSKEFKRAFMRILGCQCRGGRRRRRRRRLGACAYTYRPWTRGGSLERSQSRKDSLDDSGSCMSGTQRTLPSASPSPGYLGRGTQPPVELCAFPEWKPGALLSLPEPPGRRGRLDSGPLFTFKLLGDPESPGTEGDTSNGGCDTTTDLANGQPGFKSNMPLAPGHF
Method in brief: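 Filter binding with Wistar rat liver α1B preparation: test compound plus 0.25 nM [3H]prazosin, 1 h at 25° C in modified Tris-HCl buffer pH 7.4.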

[3] = biological target: T3, human recombinant adrenergic α2A receptor (Homo sapiens, UniProt P08913); assay: Radioligand binding, adrenergic α2A ([3H]MK-912); details: for Percentage inhibition of ligand binding, Adrenergic α2A (0.1 μM) / Percentage inhibition of ligand binding, Adrenergic α2A: compound at 0.1 μM, 0.1 µM; for Percentage inhibition of ligand binding, Adrenergic α2A: repeat assays, each datapoint shown
T3 construct: expressed in transfected cells; host or cells: insect Sf9 cells
T3 sequence (P08913 1-465): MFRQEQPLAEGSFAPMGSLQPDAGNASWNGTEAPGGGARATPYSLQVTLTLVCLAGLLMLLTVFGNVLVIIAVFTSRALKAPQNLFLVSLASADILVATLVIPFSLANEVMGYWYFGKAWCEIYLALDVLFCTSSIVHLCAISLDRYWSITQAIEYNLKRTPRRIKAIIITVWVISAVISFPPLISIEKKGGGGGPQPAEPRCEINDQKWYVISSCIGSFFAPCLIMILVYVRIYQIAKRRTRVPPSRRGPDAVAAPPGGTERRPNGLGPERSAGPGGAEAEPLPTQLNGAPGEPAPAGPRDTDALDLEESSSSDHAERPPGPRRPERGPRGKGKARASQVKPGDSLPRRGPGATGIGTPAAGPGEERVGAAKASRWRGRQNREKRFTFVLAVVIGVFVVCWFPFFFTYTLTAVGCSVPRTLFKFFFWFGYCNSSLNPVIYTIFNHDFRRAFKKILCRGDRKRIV
Method in brief: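 Receptor expressed in insect Sf9 cells, assayed in 50 mM Tris-HCl pH 7.4 with 12.5 mM MgCl2 and 2 mM EDTA. Compounds incubated with 1 nM [3H]MK-912 for 60 min at 25 °C; nonspecific binding defined with 10 μM WB-4101. Filter-bound radioactivity counted; values are percent inhibition of specific binding.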

[4] = read-out: Percentage inhibition of ligand binding, Adrenergic α2B (0.03 μM), compound at 0.03 μM, [3H]Rauwolscine, repeat datapoints each shown
[5] = read-out: Percentage inhibition of ligand binding, Adrenergic α1B (0.1 μM), compound at 0.1 μM, [3H]Prazosin, repeat datapoints each shown
[6] = read-out: Percentage inhibition of ligand binding, Adrenergic α2A (0.1 μM), compound at 0.1 μM, [3H]MK-912, repeat datapoints each shown
[7] = [3H]Rauwolscine, repeat datapoints each shown
[8] = [3H]Prazosin, repeat datapoints each shown
[9] = [3H]MK-912, repeat datapoints each shown

Structure (SMILES): Cc1ccc(CCn2c3c(c4c(Br)ccc(Cl)c42)CN(C)CC3)cn1 [II-247, 9-bromo-6-chloro-2,3,4,5-tetrahydro-2-methyl-5-(2-(6-methylpyridin-3-yl)ethyl)-1H-pyrido[4,3-b]indole]
- inhibition at 0.03 µM [1, 4]: 19%
- inhibition at 0.1 µM [2, 5]: 3%
- inhibition at 0.1 µM [3, 6]: 83%

Structure (SMILES): Cc1ccc2c(c1)c1c(n2CC(CC(O)C(C)(C)C)c2ccncc2)CCN(C)C1 (single isomer, unassigned) [II-227a, 6-(2,8-dimethyl-1,2,3,4-tetrahydro-pyrido[4,3-b]indol-5-yl)-2,2-dimethyl-5-pyridin-4-yl-hexan-3-ol]
- Percentage inhibition of ligand binding, Adrenergic α2B (0.03 μM) [1, 7]: 86%
- Percentage inhibition of ligand binding, Adrenergic α1B (0.1 μM) [2, 8]: 25%
- Percentage inhibition of ligand binding, Adrenergic α2A (0.1 μM) [3, 9]: 15%

Structure (SMILES): Cc1ccc2c(c1)c1c(n2CC(O)c2ccncc2)CC2CCCN2C1 (single isomer, unassigned) [76a]
- Percentage inhibition of ligand binding, Adrenergic α2B ([1]; [3H]Rauwolscine): 92%
- Percentage inhibition of ligand binding, Adrenergic α1B ([2]; [3H]Prazosin): 78%
- Percentage inhibition of ligand binding, Adrenergic α2A ([3]; [3H]MK-912): 21%

Structure (SMILES): Cc1cnc2c(c1)c1c(n2CC(C)(O)c2ccc(F)cc2)CCN2CCCC12 (single isomer, unassigned) [II-149a, 2-(4-fluoro-phenyl)-1-(9-methyl-1,2,3,4,5,10c-hexahydro-3a,6,7-triazacyclopenta[c]fluoren-6-yl)-propan-2-ol]
- Percentage inhibition of ligand binding, Adrenergic α2B (0.03 μM) [1, 7]: 104%
- Percentage inhibition of ligand binding, Adrenergic α1B (0.1 μM) [2, 8]: 90%
- Percentage inhibition of ligand binding, Adrenergic α2A (0.1 μM) [3, 9]: 53%

Structure (SMILES): Cc1ccc2c(c1)c1c(n2CC(C)(O)c2cccnc2)CC(C)N(C)C1 (single isomer, unassigned) [II-146d, 2-(pyridin-3-yl)-1-(2,3,8-trimethyl-3,4-dihydro-1H-pyrido[4,3-b]indol-5(2H)-yl)propan-2-ol]
- Percentage inhibition of ligand binding, Adrenergic α2B (0.03 μM) [1, 7]: 16%
- Percentage inhibition of ligand binding, Adrenergic α1B (0.1 μM) [2, 8]: 13%
- Percentage inhibition of ligand binding, Adrenergic α2A (0.1 μM) [3, 9]: 3%

Structure (SMILES): CN1CCc2c(c3ncccc3n2CC(C)(O)c2cccnc2)C1 (stereo not drawn) [II-126]
- inhibition at 0.03 µM [1, 4]: 4%
- inhibition at 0.1 µM [2, 5]: -4%
- inhibition at 0.1 µM [3, 6]: 4%

Structure (SMILES): C/C(=C\n1c2c(c3cc(C)ccc31)C1CCCN1CC2)c1ccc(C)nc1 (single isomer, unassigned) [193b, 10-methyl-7-(2-(6-methylpyridin-3-yl)prop-1-enyl)-2,3,5,6,7,11c-hexahydro-1H-indolizino[7,8-b]indole]
- inhibition at 0.03 µM [1, 4]: 104%
- inhibition at 0.1 µM [2, 5]: 91%
- inhibition at 0.1 µM [3, 6]: 83%

Structure (SMILES): Cc1cnc2c(c1)c1c(n2CC(N)c2ccc(C#N)cc2)CCNC1 (single isomer, unassigned) [160a]
- inhibition at 0.03 µM [1, 4]: 43%
- Percentage inhibition of ligand binding, Adrenergic α1B (0.1 μM) [2, 8]: 35%
- Percentage inhibition of ligand binding, Adrenergic α2A (0.1 μM) [3, 9]: −12%

Structure (SMILES): Cc1ccc2c(c1)c1c(n2CC(NC(C)C)c2ccncc2)CCN(C)C1 (stereo not drawn) [II-10, [2-(2,8-dimethyl-1,2,3,4-tetrahydro-pyrido[4,3-b]indol-5-yl)-1-pyridin-4-yl-ethyl]-isopropyl-amine]
- inhibition at 0.03 µM ([1]; 0.03 μM compound, read-out: Percentage inhibition of ligand binding, Adrenergic α2B): 47%
- inhibition at 0.1 µM ([2]; 0.1 μM compound, read-out: Percentage inhibition of ligand binding, Adrenergic α1B): 7%
- inhibition at 0.1 µM ([3]; 0.1 μM compound, read-out: Percentage inhibition of ligand binding, Adrenergic α2A): 10%

Structure (SMILES): Cc1ccc2c(c1)c1c(n2CC(C)(O)c2cccnc2)CCN(C)CC1 (stereo not drawn) [II-135a, 1-(3,9-dimethyl-2,3,4,5-tetrahydroazepino[4,5-b]indol-6(1H)-yl)-2-(pyridin-3-yl)propan-2-ol]
- inhibition at 0.03 µM [1, 4]: 34%
- inhibition at 0.1 µM [2, 5]: 48%
- inhibition at 0.1 µM [3, 6]: -3%

Structure (SMILES): Cc1ccc2c(c1)c1c(n2CC(O)c2cccnc2)CN(C)CC1 (single isomer, unassigned) [43b, 2-(2,6-dimethyl-1,2,3,4-tetrahydro-β-carbolin-9-yl)-1-pyridin-3-yl-ethanol]
- Percentage inhibition of ligand binding, Adrenergic α2B ([1]; [3H]Rauwolscine): 27%
- Percentage inhibition of ligand binding, Adrenergic α1B ([2]; [3H]Prazosin): 46%
- Percentage inhibition of ligand binding, Adrenergic α2A ([3]; [3H]MK-912): 13%

Structure (SMILES): CN1CCc2c(n(CC(C)(O)c3cccnc3)c3ccc(Cl)cc23)C1 (single isomer, unassigned) [28b]
- Percentage inhibition of ligand binding, Adrenergic α2B ([1]; [3H]Rauwolscine): 37%
- Percentage inhibition of ligand binding, Adrenergic α1B ([2]; [3H]Prazosin): 20%
- Percentage inhibition of ligand binding, Adrenergic α2A ([3]; [3H]MK-912): 24%

Structure (SMILES): Cc1ccc2c(c1)c1c(n2CC(C)(O)c2cccnc2)CCN2CCCC12 (single isomer, unassigned) [II-127b, 1-(9-methyl-1,2,3,4,5,10c-hexahydro-3a,6-diaza-cyclopenta[c]fluoren-6-yl)-2-pyridin-3-yl-propan-2-ol]
- Percentage inhibition of ligand binding, Adrenergic α2B (0.03 μM) [1, 7]: 104%
- Percentage inhibition of ligand binding, Adrenergic α1B (0.1 μM) [2, 8]: 65%
- Percentage inhibition of ligand binding, Adrenergic α2A (0.1 μM) [3, 9]: 54%

Structure (SMILES): Cc1ccc2c(c1)c1c(n2CC(C)(O)c2cnco2)CCN(C)C1 (stereo not drawn) [II-142, 1-(1,2,3,4-tetrahydro-2,8-dimethylpyrido[4,3-b]indol-5-yl)-2-(oxazol-5-yl)propan-2-ol]
- inhibition at 0.03 µM [1, 4]: 23%
- inhibition at 0.1 µM [2, 5]: 5%
- inhibition at 0.1 µM [3, 6]: -4%

Structure (SMILES): CN1Cc2c(n(CC(O)c3ccncc3)c3ncccc23)C(C)(C)C1 (single isomer, unassigned) [17b, 1-pyridin-4-yl-2-(6,8,8-trimethyl-5,6,7,8-tetrahydro-1,6,9-triaza-fluoren-9-yl)-ethanol]
- Percentage inhibition of ligand binding, Adrenergic α2B ([1]; [3H]Rauwolscine): 20%
- Percentage inhibition of ligand binding, Adrenergic α1B ([2]; [3H]Prazosin): 16%
- Percentage inhibition of ligand binding, Adrenergic α2A ([3]; [3H]MK-912): 9%

Structure (SMILES): Cc1ccc2c(c1)c1c(n2CC(O)c2ccc(C#N)nc2)CCN(C)C1 (single isomer, unassigned) [140b, 5-[2-(2,8-dimethyl-1,2,3,4-tetrahydro-pyrido[4,3-b]indol-5-yl)-1-hydroxy-ethyl]-pyridine-2-carbonitrile]
- Percentage inhibition of ligand binding, Adrenergic α2B (0.03 μM) [1, 7]: 52%
- Percentage inhibition of ligand binding, Adrenergic α1B (0.1 μM) [2, 8]: 18%
- Percentage inhibition of ligand binding, Adrenergic α2A (0.1 μM) [3, 9]: 3%
